Columns and labels:
Type in all cases: in vivo
[1] = system: Echinochloa crus-galli (ECHCG); experiment: Post-emergence herbicidal action, greenhouse pot test
Method in brief: (§1)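 Weeds grown in sandy loam in the greenhouse and sprayed post-emergence at the one-leaf stage, 2–3 weeks after sowing. Compound applied as WP or EC in water with 0.5% additive at 600 l/ha. Damage rated visually about 3 weeks later against untreated controls (0% = like control, 100% = dead).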

Veronica persica (VERPE) = experiment: as above
Method in brief: as §1

Lolium rigidum (LOLRI) = experiment: as above
Method in brief: as §1

[2] = system: Pharbitis purpurea (PHBPU); experiment: as above
Method in brief: as §1

[3] = system: Digitaria sanguinalis (DIGSA); experiment: as above
Method in brief: as §1

[4] = system: Abutilon theophrasti (ABUTH); experiment: as above
Method in brief: as §1

Viola tricolor (VIOTR) = experiment: as above
Method in brief: as §1

[5] = system: Alopecurus myosuroides (ALOMY); experiment: as above; settings: 20 g/ha
Method in brief: as §1

Bassia scoparia (KCHSC) = experiment: as above
Method in brief: as §1

Setaria viridis (SETVI) = experiment: as above
Method in brief: as §1

[6] = system: Tripleurospermum inodorum (MATIN); experiment: as above; settings: 20 g/ha
Method in brief: as §1

[7] = system: Polygonum convolvulus (POLCO); experiment: as above
Method in brief: as §1

[8] = system: Amaranthus retroflexus (AMARE); experiment: as above
Method in brief: as §1

[9] = system: Triticum aestivum (TRZAS); experiment: Post-emergence crop plant compatibility, greenhouse pot test; settings: crop plant, post-emergence, 1.25 g/ha
Method in brief: (§2)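 Visual % damage scores were taken roughly 3 weeks after treatment, relative to untreated plants, where 100% means plants died and 0% means no difference. Plants received aqueous sprays (WP or EC, 0.5% additive, 600 l/ha) on green parts at the one-leaf stage, 2–3 weeks after sowing.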

Glycine max (GLXMA) = experiment: as above; settings: crop plant, post-emergence, 1.25 g/ha
Method in brief: as §2

## CC(OC(=O)COc1ccccc1Oc1cc(-n2c(=O)cc(C(F)(F)F)n(C)c2=O)c(F)cc1Cl)C1CCCC1 (centres unmarked) [I.7-13]
[1]; 1.25 g/ha
  Post-emergence effect at 1.25 g/ha against ECHCG in %: 80%
[1]; 5 g/ha
  Post-emergence effect at 5 g/ha against ECHCG in %: 90%
[1]; 20 g/ha
  Post-emergence effect at 20 g/ha against ECHCG in %: 100%
Veronica persica (VERPE); 1.25 g/ha
  Post-emergence effect at 1.25 g/ha against VERPE in %: 100%
Veronica persica (VERPE); 5 g/ha
  Post-emergence effect at 5 g/ha against VERPE in %: 100%
Veronica persica (VERPE); 20 g/ha
  Post-emergence effect at 20 g/ha against VERPE in %: 100%
Lolium rigidum (LOLRI)
  Post-emergence effect at 20 g/ha against LOLRI in %: 80%
[2]; 1.25 g/ha
  Post-emergence effect at 1.25 g/ha against PHBPU in %: 100%
[2]; 5 g/ha
  Post-emergence effect at 5 g/ha against PHBPU in %: 100%
[2]; 20 g/ha
  Post-emergence effect at 20 g/ha against PHBPU in %: 100%
[3]; 5 g/ha
  Post-emergence effect at 5 g/ha against DIGSA in %: 100%
[3]; 20 g/ha
  Post-emergence effect at 20 g/ha against DIGSA in %: 100%
[4]; 1.25 g/ha
  Post-emergence effect at 1.25 g/ha against ABUTH in %: 80%
[4]; 5 g/ha
  Post-emergence effect at 5 g/ha against ABUTH in %: 100%
[4]; 20 g/ha
  Post-emergence effect at 20 g/ha against ABUTH in %: 100%
Viola tricolor (VIOTR); 1.25 g/ha
  Post-emergence effect at 1.25 g/ha against VIOTR in %: 90%
Viola tricolor (VIOTR); 5 g/ha
  Post-emergence effect at 5 g/ha against VIOTR in %: 100%
Viola tricolor (VIOTR); 20 g/ha
  Post-emergence effect at 20 g/ha against VIOTR in %: 100%
[5]
  Post-emergence effect at 20 g/ha against ALOMY in %: 80%
Bassia scoparia (KCHSC); 5 g/ha
  Post-emergence effect at 5 g/ha against KCHSC in %: 100%
Bassia scoparia (KCHSC); 20 g/ha
  Post-emergence effect at 20 g/ha against KCHSC in %: 100%
Setaria viridis (SETVI); 1.25 g/ha
  Post-emergence effect at 1.25 g/ha against SETVI in %: 100%
Setaria viridis (SETVI); 5 g/ha
  Post-emergence effect at 5 g/ha against SETVI in %: 100%
Setaria viridis (SETVI); 20 g/ha
  Post-emergence effect at 20 g/ha against SETVI in %: 100%
[6]
  Post-emergence effect at 20 g/ha against MATIN in %: 80%
[7]; 5 g/ha
  Post-emergence effect at 5 g/ha against POLCO in %: 100%
[7]; 20 g/ha
  Post-emergence effect at 20 g/ha against POLCO in %: 100%
[8]; 1.25 g/ha
  Post-emergence effect at 1.25 g/ha against AMARE in %: 100%
[8]; 5 g/ha
  Post-emergence effect at 5 g/ha against AMARE in %: 100%
[8]; 20 g/ha
  Post-emergence effect at 20 g/ha against AMARE in %: 100%
[9]
  Post-emergence effect at 1.25 g/ha against TRZAS in %: 20%
Glycine max (GLXMA)
  Post-emergence effect at 1.25 g/ha against GLXMA in %: 20%

Reference: patent publication US20260138958A1, “SUBSTITUTED N-PHENYLURACILS AND SALTS THEREOF, AND USE THEREOF AS HERBICIDAL ACTIVE SUBSTANCES” (Bayer Aktiengesellschaft, priority 2022, published 2026)
